According to ChEMBL document CHEMBL5214959, “Synthesis of capuramycin and its analogues via a Ferrier-type I reaction and their biological evaluation” (Bioorg Med Chem, 2022):
pIC50: −log10 of the molar value. Converted amounts (≈) assume the structure as drawn.

Legend:
[1] = Antibacterial activity against Mycobacterium avium subsp. avium ATCC 25291 incubated for 11 days measured by microplate reader method; format: functional; details: ATCC 25291, 264 h, time 11 day
[2] = Antibacterial activity against Mycobacterium abscessus subsp. abscessus ATCC 19977 incubated for 5 days measured by microplate reader method; format: functional; details: Mycobacteroides abscessus, ATCC 19977, 120 h; time 5 day
[3] = tested on: Mycolicibacterium smegmatis; test: Antibacterial activity against Mycobacterium smegmatis mc2 155 incubated for 4 days measured by microplate reader method; format: functional; details: mc2 155, 96 h, time 4 day
[4] = tested on: Mycobacterium tuberculosis; test: Antibacterial activity against Mycobacterium tuberculosis H37Rv incubated for 14 days measured by microplate reader method; format: functional; details: 336 h, time 14 day
[5] = molecular target: T1, Phospho-N-acetylmuramoyl-pentapeptide-transferase (Staphylococcus aureus, UniProt P0C1R8); test: Inhibition of Staphylococcus aureus MraY assessed as reduction of dansylated lipid I formation using UDP-MurNAc-dansylpentapeptide as substrate incubated for 3 to 4 hrs by fluorescence based analysis
T1 sequence (P0C1R8 whole entry): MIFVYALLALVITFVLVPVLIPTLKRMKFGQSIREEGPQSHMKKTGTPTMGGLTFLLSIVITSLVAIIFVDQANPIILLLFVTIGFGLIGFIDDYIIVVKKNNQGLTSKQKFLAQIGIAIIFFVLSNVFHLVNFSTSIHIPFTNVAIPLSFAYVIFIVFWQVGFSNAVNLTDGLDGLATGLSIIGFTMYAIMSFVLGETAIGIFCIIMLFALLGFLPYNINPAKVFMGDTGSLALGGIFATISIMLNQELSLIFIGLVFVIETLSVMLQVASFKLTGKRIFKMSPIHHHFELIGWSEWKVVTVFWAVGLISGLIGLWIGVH

[6] = tested on: Mycolicibacterium smegmatis; test: Antibacterial activity against Mycobacterium smegmatis; format: functional
[7] = Inhibition of bacterial MraY; parameters: species or system Bacteria

SMILES	MIC50 [1] [µg/mL]	MIC50 [2] [µg/mL]	MIC50 [3] [µg/mL]	MIC50 [4] [µg/mL]	pIC50 [5]	MIC [6] [µg/mL]	IC50 [7] [µg/mL]
NC(=O)[C@H](O[C@H]1OC(C(=O)N[C@H]2CCCCNC2=O)=C[C@H](O)[C@@H]1O)[C@H]1O[C@@H](n2ccc(=O)[nH]c2=O)[C@H](O)[C@@H]1O	16 (≈ 28.8 µM)	≥ 64	32 (≈ 57.6 µM)	> 32	5.70		
CO[C@H]1[C@@H](O)[C@H](n2ccc(=O)[nH]c2=O)O[C@@H]1[C@H](C#N)O[C@H]1OC(C(=O)N[C@H]2CCCCNC2=O)=C[C@H](O)[C@@H]1O	> 32	> 64	> 32	> 32	4.92		
CO[C@H]1[C@@H](O)[C@H](n2ccc(=O)[nH]c2=O)O[C@@H]1[C@H](O[C@H]1OC(C(=O)N[C@H]2CCCCNC2=O)=C[C@H](O)[C@@H]1O)C(N)=O	> 32	≥ 64	> 32	> 32	5.00		
O=C(N[C@H]1CCCCNC1=O)C1=C[C@H](O)[C@H](O)[C@@H](OC[C@H]2O[C@@H](n3ccc(=O)[nH]c3=O)[C@H](O)[C@@H]2O)O1	> 32	32 (≈ 62.4 µM)	> 32	> 32	4.12		
CO[C@H]1[C@@H](O)[C@H](n2ccc(=O)[nH]c2=O)O[C@@H]1[C@@H](O[C@H]1OC(C(=O)N[C@H]2CCCCNC2=O)=C[C@H](O)[C@@H]1O)C(N)=O [CAPURAMYCIN]	8 (≈ 14 µM)	64 (≈ 112 µM)	32 (≈ 56.2 µM)	32 (≈ 56.2 µM)	6.48	6.25 (≈ 11 µM)	0.01 (≈ 0.0176 µM)
